# Measurements: US20210076677A1, “NOVEL PESTICIDAL COMBINATIONS” (priority 2017, published 2021)
# What was measured:
# [1] = tested on: Alternaria solani in tomato; experiment: Field trial, early blight control in tomato (Colby synergy); format: in vivo; conditions: 10 days after application, Mancozeb + Azoxystrobin 1750 g/ha, Chlorantriniprole 150 g/ha
# Method: Studies were conducted to compare the efficacy of the combination of amide insecticides with fungicides selected from the various classes and to compare their observed efficacy with the ‘expected_ efficacy when amide insecticides and fungicides were used to treat fungal and insect pests. Any difference between the observed and ‘expected_ efficacy could be attributed to synergy between the two compounds in the control of fungal and insect pests. The expected efficacy of a combination of amide insecticides with fungicides was calculated using the well-established Colby method. […] An unexpected enhancement in efficacy of the combination is then determined by comparing the observed response of the combination to the expected (or predicted) response as calculated from the observed response of each individual component alone. If the observed response of the combination is greater than the expected (or predicted) response, or stated conversely, if the difference between the observed and expected response is greater than zero, then the combination is said to be synergistic or unexpectedly effective. (Colby, S. R., Weeds, 1967(15), p. 20-22) The Colby method requires only a single dose of each active applied alone and the mixture of both doses. The formula used to calculate the expected efficacy (EE) which was compared with the observed efficacy (OE) to determine the efficacy of the present invention is explained hereinbelow: […] The efficacy of the individual actives of the invention and their combinations were evaluated on various fungal and insect pests. The trial was carried out in Randomized Complete Block (RCB) method, all field trials were conducted using this method. Each trial was replicated three times and conducted under GEP guidelines. Application volumes were varied for each mixture. Such field trials were carried out at various locations so as to generate independent data, the locations were chosen randomly across India. […]
# [2] = tested on: Helicoverpa armigera in tomato; experiment: Field trial, fruit borer control in tomato (Colby synergy); format: in vivo; conditions: 10 days after application, Mancozeb + Azoxystrobin 1750 g/ha, Chlorantriniprole 150 g/ha
# Method: Studies were conducted to compare the efficacy of the combination of amide insecticides with fungicides selected from the various classes and to compare their observed efficacy with the ‘expected_ efficacy when amide insecticides and fungicides were used to treat fungal and insect pests. Any difference between the observed and ‘expected_ efficacy could be attributed to synergy between the two compounds in the control of fungal and insect pests. The expected efficacy of a combination of amide insecticides with fungicides was calculated using the well-established Colby method.
# In the Colby method, the expected (or predicted) response of a combination of actives is calculated by taking the product of the observed response for each individual component of the combination when applied alone divided by 100 and subtracting this value from the sum of the observed response for each component when applied alone. An unexpected enhancement in efficacy of the combination is then determined by comparing the observed response of the combination to the expected (or predicted) response as calculated from the observed response of each individual component alone. If the observed response of the combination is greater than the expected (or predicted) response, or stated conversely, if the difference between the observed and expected response is greater than zero, then the combination is said to be synergistic or unexpectedly effective. (Colby, S. R., Weeds, 1967(15), p. 20-22) The Colby method requires only a single dose of each active applied alone and the mixture of both doses. […]
# The efficacy of the individual actives of the invention and their combinations were evaluated on various fungal and insect pests. […]
# Further field trials were carried out to test the synergy of the combination amide […] chlorantriniprole in combination with fungicides for the control of Helicoverpa armigera in tomato. […] The percentage efficacy was calculated after 10 days of applications and the results are recorded in the table below: […]
compound,measurement,setting,value
"CNC(=O)c1cc(Cl)cc(C)c1NC(=O)c1cc(Br)nn1-c1ncccc1Cl [Chlorantriniprole, chlorantraniliprole]","% Disease control, Early Blight Control in tomato 10DAA, Actual",[1]; first trial (columns c2/c3),1.91%
same,"% Disease control, Early Blight Control in tomato 10DAA, Actual",[1]; second trial (columns c4/c5),1.86%
same,"% Disease control, Early Blight Control in tomato 10DAA, Actual",[1]; third trial (columns c6/c7),2.70%
same,"% control of pest, Fruit Borer control in tomato 10DAA, Actual",[2]; first trial (columns c2/c3),75.8%
same,"% control of pest, Fruit Borer control in tomato 10DAA, Actual",[2]; second trial (columns c4/c5),86.4%
same,"% control of pest, Fruit Borer control in tomato 10DAA, Actual",[2]; third trial (columns c6/c7),88.4%
